From ChEMBL document CHEMBL2375236, “Strategic use of conformational bias and structure based design to identify potent JAK3 inhibitors with improved selectivity against the JAK family and the kinome” (Bioorg Med Chem Lett, 2013) come the findings set out here.

Data set [1] can be described thus: physchem.
The target in data set [2] is T1, Tyrosine-protein kinase JAK1 (Homo sapiens, UniProt P23458).
The target in data set [3] is T2, Tyrosine-protein kinase JAK3 (Homo sapiens, UniProt P52333).
T2 sequence (P52333 whole entry): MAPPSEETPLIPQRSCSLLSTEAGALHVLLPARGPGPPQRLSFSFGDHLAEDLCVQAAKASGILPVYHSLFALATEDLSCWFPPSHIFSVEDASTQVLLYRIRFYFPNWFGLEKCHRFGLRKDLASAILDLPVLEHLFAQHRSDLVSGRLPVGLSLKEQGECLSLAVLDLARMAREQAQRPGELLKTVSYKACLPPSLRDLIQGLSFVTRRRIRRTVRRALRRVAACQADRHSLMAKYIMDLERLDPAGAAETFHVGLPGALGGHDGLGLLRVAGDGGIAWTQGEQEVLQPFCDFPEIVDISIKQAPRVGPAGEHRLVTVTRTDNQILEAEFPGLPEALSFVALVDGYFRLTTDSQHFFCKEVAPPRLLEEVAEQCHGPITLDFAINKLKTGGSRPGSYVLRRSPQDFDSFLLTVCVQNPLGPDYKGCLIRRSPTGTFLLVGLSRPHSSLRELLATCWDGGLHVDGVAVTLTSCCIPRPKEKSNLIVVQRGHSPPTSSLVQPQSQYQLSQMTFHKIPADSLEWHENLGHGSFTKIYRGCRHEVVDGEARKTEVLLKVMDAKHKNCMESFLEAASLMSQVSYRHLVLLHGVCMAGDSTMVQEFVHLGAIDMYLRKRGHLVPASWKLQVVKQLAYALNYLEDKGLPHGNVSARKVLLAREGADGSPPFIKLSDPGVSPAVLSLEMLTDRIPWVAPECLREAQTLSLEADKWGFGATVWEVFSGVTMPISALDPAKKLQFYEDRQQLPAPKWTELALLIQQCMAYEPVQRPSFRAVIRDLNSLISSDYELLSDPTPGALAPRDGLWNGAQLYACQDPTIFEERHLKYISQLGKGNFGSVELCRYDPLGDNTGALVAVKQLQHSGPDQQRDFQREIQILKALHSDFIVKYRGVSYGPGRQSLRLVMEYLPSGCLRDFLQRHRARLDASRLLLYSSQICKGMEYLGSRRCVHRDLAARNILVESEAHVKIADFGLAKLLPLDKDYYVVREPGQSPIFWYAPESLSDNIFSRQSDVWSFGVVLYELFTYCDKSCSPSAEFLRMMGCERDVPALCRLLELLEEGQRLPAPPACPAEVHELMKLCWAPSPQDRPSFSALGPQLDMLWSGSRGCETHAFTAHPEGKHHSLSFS

Data set [4] concerns the target Non-receptor tyrosine-protein kinase TYK2 (Homo sapiens, UniProt P29597).
Description: Binding affinity to TYK2 (unknown origin) by ligand displacement assay
Data set [5] addresses T1, Tyrosine-protein kinase JAK1. The source holds these as a separate data set.
Description: Binding affinity to JAK1 (unknown origin) by ligand displacement assay

Values after ≈ are worked out from the molar mass of the structure shown.

One may read the solubility as the dissolved amount per volume that the medium holds. A high value points to much dissolved substance. As for `C[C@@H](NC(=O)c1c[nH]c2ncc(C3CC3)nc12)C(=O)N1CC(C#N)C1`, the solubility in data set [1] came out at 277 µg/mL (≈ 819 µM). As usually defined, the IC50 is the point on the concentration scale where inhibition reaches its midpoint. A low value points to inhibition by little substance. Take `COc1cc(-c2cnc3[nH]cc(C(=O)N[C@H](C)C(=O)N4CC(C#N)C4)c3n2)cc(OC)c1OC`: the IC50 in data set [2] was 7.4 nM. Turning to `CCn1cc(-c2cnc3[nH]cc(C(=O)N[C@H](C)C(=O)N4CC(C#N)C4)c3n2)cn1`, the IC50 in data set [2] was 23 nM; in data set [3], 5.2 nM. The compound also showed a solubility in data set [1] of 366 µg/mL (≈ 933 µM). For `C[C@@H](NC(=O)c1c[nH]c2ncc(-c3cn(C)c4cc(Cl)ccc34)nc12)C(=O)N1CC(C#N)C1`, half-maximal inhibition in data set [2] (IC50) was put at 1 nM. This compound also returned a solubility in data set [1] of less than 1 µg/mL. A word on the Kd: it is a measure of binding affinity in units of concentration. Read a low Kd as higher affinity. For the compound `C[C@@H](NC(=O)c1c[nH]c2ncc(-c3nn(C)c4cc(Cl)ccc34)nc12)C(=O)N1CC(C#N)C1`, the results for the Kd in data set [4] and in data set [5] were 350 nM and 73 nM, respectively. Further, in data set [2], inhibition was half-maximal at 31 nM (IC50). This compound also registered a solubility in data set [1] of less than 1 µg/mL. On to `C[C@@H](NC(=O)c1c[nH]c2ncc(-c3nn(C)c4ccc(Cl)cc34)nc12)C(=O)N1CC(C#N)C1`, for which the IC50 in data set [2] worked out at 61 nM. For `C[C@@H](NC(=O)c1c[nH]c2ncc(-c3nn(C)c4ccccc34)nc12)C(=O)N1CC(C#N)C1`, the IC50 in data set [2] was determined as 22 nM. Consider `C[C@@H](NC(=O)c1c[nH]c2ncc(-c3nn(C)c4cc(F)ccc34)nc12)C(=O)N1CC(C#N)C1`, for which, in data set [2], the concentration for half-maximal inhibition (IC50) was determined as 17 nM. Also, in data set [1], the solubility was less than 1 µg/mL. The like results for `C[C@@H](NC(=O)c1c[nH]c2ncc(-c3nn(C)c4cc(C#N)ccc34)nc12)C(=O)N1CC(C#N)C1` were, in that order, 51 nM and less than 1 µg/mL. `COc1ccc2c(-c3cnc4[nH]cc(C(=O)N[C@H](C)C(=O)N5CC(C#N)C5)c4n3)nn(C)c2c1`: half-maximal inhibition in data set [2] (IC50) was put at 38 nM. In data set [1], this compound yielded a solubility of less than 1 µg/mL.

In data set [2], `C[C@@H](NC(=O)c1c[nH]c2ncc(-c3nn(C)c4cc(C5CC5)ccc34)nc12)C(=O)N1CC(C#N)C1` yielded an IC50 of 10 nM. With `C[C@@H](NC(=O)c1c[nH]c2ncc(-c3nn(C)c4cc(C(C)(C)C)ccc34)nc12)C(=O)N1CC(C#N)C1`, inhibition in data set [2] was half-maximal at 12 nM (IC50). The IC50 values of the last two compounds are within 1.5-fold of each other. In data set [1], `C[C@@H](NC(=O)c1c[nH]c2ncc(-c3nn(C)c4cc(Cl)cc(F)c34)nc12)C(=O)N1CC(C#N)C1` had a solubility of less than 1 µg/mL. Compound `CC[C@@H](NC(=O)c1c[nH]c2ncc(-c3nn(C)c4cc(Cl)ccc34)nc12)C(=O)N1CC(C#N)C1` had an IC50 in data set [2] of 4.6 nM. The solubility in data set [1] was less than 1 µg/mL. With `Cn1nc(-c2cnc3[nH]cc(C(=O)N[C@@H](C(=O)N4CC(C#N)C4)C4CC4)c3n2)c2ccc(Cl)cc21`, in data set [2], the IC50 amounted to 0.8 nM.

On to `Cn1nc(-c2cnc3[nH]cc(C(=O)N[C@@H](C(=O)N4CC(C#N)C4)C(C)(C)C)c3n2)c2ccc(Cl)cc21`, for which, in data set [2], the IC50 was 5.5 nM. This IC50 is about 6.9-fold higher than that of the compound before. `C[C@@H](NC(=O)c1c[nH]c2ncc(-n3ncc4cc(Cl)ccc43)nc12)C(=O)N1CC(C#N)C1` came in with an IC50 in data set [2] of 370 nM. Further, the solubility in data set [1] was less than 1 µg/mL. The matching figures for `C[C@@H](NC(=O)c1c[nH]c2ncc(-c3ncn4cc(F)ccc34)nc12)C(=O)N1CC(C#N)C1`: 16 nM and 39 µg/mL (≈ 90.2 µM). The like results for `C[C@@H](NC(=O)c1c[nH]c2ncc(-c3ncn4cc(F)cc(F)c34)nc12)C(=O)N1CC(C#N)C1` were, in that order, 73 nM and 31 µg/mL (≈ 68.8 µM). In turn, `C[C@@H](NC(=O)c1c[nH]c2ncc(-c3cnc4cc(Cl)ccn34)nc12)C(=O)N1CC(C#N)C1` came in with an IC50 in data set [2] of 61 nM.
